Source: patent EP3319959B1, “HETERO-HALO INHIBITORS OF HISTONE DEACETYLASE” (Alkermes, Inc., priority 2015, dated 2017)

Key:
[1] = test system: recombinant human HDACs; experiment: HDAC enzymatic assay (LabChip capillary electrophoresis); format: biochemical; conditions: 5 nM HDAC enzyme, 1 uM substrate, 5 hours pre-incubation, 17 hours reaction at 25°C; isoform not given
Description: All recombinant human HDACs were purchased from BPS Bioscience. The substrate, FAM-TSRHK(AC)KL-CONH, was synthesized at NanoSyn. Final assay reactions contained 100 mM HEPES (pH 7.5), 50 mM KCl, 0.1% BSA, 0.01% Triton X-100, 1% DMSO, 1 uM substrate and 5 nM HDAC enzyme. Enzyme and compounds were pre-incubated at 25°C for 5 hours and reactions were initiated by addition of substrate. 10 uL reactions were incubated for 17 hours at 25°C and terminated by the addition of 40 uL of buffer containing 100 mM HEPES (pH 7.5), 0.1% BSA, 0.01% Triton X-100 and 0.05% SDS. Substrate and product peptides present in each sample were separated electrophoretically using the LabChip 3000 capillary electrophoresis instrument. Change in the relative fluorescence intensity of the substrate and product peaks reflects enzyme activity. Reaction progress was determined as the product to sum ratio (PSR): P/(S+P), where P is the peak height of the product peptide and S is the peak height of the substrate peptide. Reactions were performed in duplicate at 12 concentrations, (3X serial dilutions starting at 30 uM). IC50 values were calculated using a 4 Parameter Logistic Model.

[2] = test system: SH-SY5Y cells; experiment: Cell assay in SH-SY5Y cells with HDAC-Glo 2 reagent; format: cell-based; conditions: Homo sapiens, 5 h, five hours at 37°C, CI-994 at 100 uM defined as 100% inhibition
Description: SH-SY5Y cells (Sigma) were cultured in Eagle's Modified Essential Medium supplemented with 10% fetal bovine serum and pen/strep. Twenty-four hours prior to compound dosing 20 uL of cells were plated in white 384 well plates at a density of 1,500 cells/well. Compounds were serially diluted in neat DMSO and then diluted 1:100 v/v into media without FBS and mixed. Media was removed from the plated cells and the diluted compounds in serum free media (1% v/v final DMSO) were added and incubated at 37°C for five hours. Ten uL of HDAC-Glo 2 reagent with 0.1% Triton X-100 was then added, the plate was mixed and allowed to develop at room temperature for 100 minutes. Plates were then read with a Spectramax LMax luminometer employing a 0.4s integration time. Dose response curves were constructed with normalized data where CI-994 at 100 uM was defined as 100% inhibition and DMSO alone as 0% inhibition. Table 5. IC50 and EC50 Values for Exemplary Compounds Useful in the Invention

| Compound | IC50 [1] [nM] | EC50 [2] [nM] |
| --- | --- | --- |
| Nc1ccc(-c2ccc(F)cc2)nc1NC(=O)N1Cc2cc(CN3CCC(F)(F)C3)cnc2C1 [Compound 273] | 100 to 500 | 100 to 500 |
| Nc1ccc(-c2ccc(F)cc2)nc1NC(=O)N1C[C@@H]2[C@@H](CN3CCC3)[C@@H]2C1 [Compound 270] | > 5000 | > 5000 |
| CN1CCN(C[C@@H]2[C@H]3CN(C(=O)Nc4nc(-c5ccc(F)cc5)ccc4N)C[C@@H]23)CC1 [Compound 269] | > 5000 | > 5000 |
| Nc1ccc(-c2ccc(F)cc2)nc1NC(=O)N1Cc2cnc(CN3CC(F)(F)C3)cc2C1 [Compound 266] | 500 to 5000 | 500 to 5000 |
| Nc1ccc(-c2ccc(F)cc2)nc1NC(=O)N1Cc2cncnc2C1 [Compound 277] | 500 to 5000 | 500 to 5000 |
| CN(C)Cc1ccc(C2CN(C(=O)Nc3nc(-c4ccc(F)cc4)ccc3N)C2)cc1 [Compound 146] | 100 to 500 | 500 to 5000 |
| CC(C)Cc1cnc2c(c1)CN(C(=O)Nc1nc(-c3ccc(F)cc3)ccc1N)C2 [Compound 274] | 100 to 500 | 100 to 500 |
| COCc1cc2c(cn1)CN(C(=O)Nc1nc(-c3ccc(F)cc3)ccc1N)C2 [Compound 243] | 100 to 500 | 500 to 5000 |
| Nc1ccc(-c2ccc(F)cc2)nc1NC(=O)N1Cc2cc(CN3CCCC3)cnc2C1 [Compound 155] | 100 to 500 | 100 to 500 |
| CN1CCc2sc(C(=O)Nc3nc(-c4ccco4)ccc3N)nc2C1 [Compound 163] | 100 to 500 | 100 to 500 |
| CN1CC=C(c2cnc3c(c2)CN(C(=O)Nc2nc(-c4ccc(F)cc4)ccc2N)C3)CC1 [Compound 253] | 100 to 500 | 100 to 500 |
| Nc1ccc(-c2ccc(F)cc2)nc1NC(=O)N1Cc2cc(CN3CCC3)cnc2C1 [Compound 272] | 100 to 500 | 100 to 500 |
| CN1CCC(N2C[C@@H]3[C@H](C2)[C@H]3C(=O)Nc2nc(-c3ccc(F)cc3)ccc2N)CC1 (stereo in doubt) [Compound 263] | 500 to 5000 | 500 to 5000 |
| Nc1ccc(-c2cccs2)nc1NC(=O)N1Cc2cc(CN3CCCC3)cnc2C1 [Compound 144] | 100 to 500 | 100 to 500 |
| Cn1cc2c(n1)CN(C(=O)Nc1nc(-c3ccc(F)cc3)ccc1N)C2 [Compound 257] | 100 to 500 | 100 to 500 |
| Nc1ccc(-c2ccc(F)cc2)nc1NC(=O)N1Cc2ccncc2C1 [Compound 373] | 100 to 500 | 500 to 5000 |
| CN1CCC(c2cnc3c(c2)CN(C(=O)Nc2nc(-c4cccnc4)ccc2N)C3)CC1 [Compound 265] | 500 to 5000 | 500 to 5000 |
| Nc1ccc(-c2ccc(F)cc2)nc1NC(=O)N1Cc2ccc(CO)cc2C1 [Compound 366] | 100 to 500 | 500 to 5000 |
| CN1CCN(c2cnc3c(c2)CN(C(=O)Nc2nc(-c4ccc(F)cc4)ccc2N)C3)CC1 [Compound 159] | 100 to 500 | 500 to 5000 |
| CN1CCC(c2cnc3c(c2)CN(C(=O)Nc2nc(-c4ccc(F)cc4)ccc2N)C3)CC1 [Compound 252] | 100 to 500 | 100 to 500 |
| CN1CC=C(c2cnc3c(c2)CN(C(=O)Nc2nc(-c4cccs4)ccc2N)C3)CC1 [Compound 251] | 100 to 500 | 100 to 500 |

| Compound | IC50 [1] [nM] | EC50 [2] [nM] |
| --- | --- | --- |
| CN1CC=C(c2cc3c(cn2)CN(C(=O)Nc2nc(-c4ccc(F)cc4)ccc2N)C3)CC1 [Compound 148] | 100 to 500 | 500 to 5000 |
| Nc1ccc(-c2ccc(F)cc2)nc1NC(=O)N1Cc2cc(CN3CC(F)(F)C3)cnc2C1 [Compound 271] | 500 to 5000 | 500 to 5000 |
| CN(C)Cc1cnc2c(c1)CN(C(=O)Nc1nc(-c3cccnc3)ccc1N)C2 [Compound 161] | 100 to 500 | 100 to 500 |
| CN(C)Cc1ccc2c(c1)CN(C(=O)Nc1nc(-c3ccc(F)cc3)ccc1N)C2 [Compound 371] | 100 to 500 | 500 to 5000 |
| Nc1ccc(-c2ccc(F)cc2)nc1NC(=O)N1Cc2cccnc2C1 [Compound 397] | 100 to 500 | 100 to 500 |
| Cn1ncc2c1CN(C(=O)Nc1nc(-c3ccc(F)cc3)ccc1N)C2 [Compound 258] | 500 to 5000 | 500 to 5000 |
| Nc1ccc(-c2cccs2)nc1NC(=O)N1Cc2nccnc2C1 [Compound 156] | 100 to 500 | 100 to 500 |
| CN(C)Cc1cnc2c(c1)CN(C(=O)Nc1nc(-c3cccs3)ccc1N)C2 [Compound 145] | 100 to 500 | 100 to 500 |
| CN1CCN(c2ccc3c(n2)CN(C(=O)Nc2nc(-c4ccc(F)cc4)ccc2N)C3)CC1 [Compound 391] | 100 to 500 | 100 to 500 |
| CN1CCN(Cc2ccc3c(c2)CN(C(=O)Nc2nc(-c4ccc(F)cc4)ccc2N)C3)CC1 [Compound 367] | 100 to 500 | 500 to 5000 |
| CN1CCC(c2cnc3c(c2)CN(C(=O)Nc2nc(-c4cccs4)ccc2N)C3)CC1 [Compound 250] | 100 to 500 | 100 to 500 |
| CN1CCC(c2cc3c(cn2)CN(C(=O)Nc2nc(-c4ccc(F)cc4)ccc2N)C3)CC1 [Compound 149] | 100 to 500 | 100 to 500 |
| CN(C)Cc1cc2c(cn1)CN(C(=O)Nc1nc(-c3ccc(F)cc3)ccc1N)C2 [Compound 162] | 100 to 500 | 100 to 500 |
| COC[C@@H]1[C@H]2CN(C(=O)Nc3nc(-c4ccc(F)cc4)ccc3N)C[C@@H]12 [Compound 276] | 500 to 5000 | 500 to 5000 |
| Nc1ccc(-c2cccnc2)nc1NC(=O)N1Cc2ccc(CO)cc2C1 [Compound 395] | > 5000 | 500 to 5000 |
| CN(C)Cc1cnc2c(c1)CN(C(=O)Nc1nc(-c3ccc(F)cc3)ccc1N)C2 [Compound 154] | 100 to 500 | 100 to 500 |
| Cc1cnc(C(=O)Nc2nn(-c3ccccc3)cc2N)s1 [Compound 126] | 500 to 5000 | – |
| Nc1ccc(-c2ccc(F)cc2)nc1NC(=O)N1Cc2cc(N3CCC3)cnc2C1 [Compound 157] | 100 to 500 | – |
| Nc1ccc(-c2ccc(F)cc2)nc1NC(=O)N1CC2CN(Cc3ccccc3F)CC2C1 (stereo not drawn) [Compound 176] | 500 to 5000 | – |
| Nc1ccc(-c2ccco2)nc1NC(=O)N1CC2CC(N3CC(F)C3)CC2C1 (stereo not drawn) [Compound 189] | > 5000 | – |
| Nc1ccc(-c2ccc(F)cc2)nc1NC(=O)N1Cc2cnc(N3CCOCC3)cc2C1 [Compound 150] | 100 to 500 | – |

| Compound | IC50 [1] [nM] | EC50 [2] [nM] |
| --- | --- | --- |
| Nc1cn(-c2ccccc2)nc1NC(=O)N1CCC2(CCOCC2)C1 [Compound 407] | > 5000 | – |
| Nc1ccc(-c2ccc(F)cc2)nc1NC(=O)N1C[C@@H]2[C@@H](CO)[C@@H]2C1 [Compound 238] | 500 to 5000 | – |
| Nc1ccc(-c2cccnc2)nc1NC(=O)N1Cc2nccnc2C1 [Compound 214] | 500 to 5000 | – |
| Nc1ccc(-c2cccs2)nc1NC(=O)N1Cc2ccc(CN3CCCC3)cc2C1 [Compound 410] | 100 to 500 | – |
| CN(C1CCOC1)C1CC2CN(C(=O)Nc3nc(-c4ccc(F)cc4)ccc3N)CC2C1 (stereo not drawn) [Compound 237] | > 5000 | – |
| Nc1ccc(-c2ccc(F)cc2)nc1NC(=O)N1CCC(F)(F)C1 [Compound 364] | 500 to 5000 | – |
| Nc1ccc(-c2ccc(OC(F)F)cc2)nc1NC(=O)N1Cc2nccnc2C1 [Compound 228] | 500 to 5000 | – |
| Nc1ccc(-c2ccc(F)cc2)nc1NC(=O)N1Cc2cc(N3CCOCC3)cnc2C1 [Compound 158] | 100 to 500 | – |
| CN(C)[C@H]1[C@@H]2CN(C(=O)Nc3nc(-c4ccc(F)cc4)ccc3N)C[C@@H]21 [Compound 242] | > 5000 | – |
| Nc1ccc(-c2ccc(F)cc2)nc1NC(=O)N1CC2CN(C3CCOCC3)CC2C1 (stereo not drawn) [Compound 236] | > 5000 | – |
| Nc1ccc(-c2ccc(F)cc2)nc1NC(=O)c1nc2c(s1)CCN(CCF)C2 [Compound 165] | 100 to 500 | – |
| CC(=O)N1CCC(C(=O)Nc2nn(-c3ccccc3)cc2N)CC1 [Compound 358] | > 5000 | – |
| Cc1cc(F)ccc1-c1ccc(N)c(NC(=O)N2Cc3cnc(CN(C)C)cc3C2)n1 [Compound 261] | > 5000 | – |
| CN1CCN(Cc2cccc3c2CN(C(=O)Nc2nc(-c4ccc(F)cc4)ccc2N)C3)CC1 [Compound 178] | > 5000 | – |
| Nc1ccc(-c2ccc(F)cc2)nc1NC(=O)N1CCC(C(F)(F)F)C1 (stereo not drawn) [Compound 390] | 500 to 5000 | – |
| Nc1ccc(-c2ccc(F)cc2)nc1NC(=O)N1CC2CC(N3CC(F)C3)CC2C1 (stereo not drawn) [Compound 188] | 500 to 5000 | – |
| Nc1ccc(-c2ccc(F)cc2)nc1NC(=O)N1Cc2cnc(N3CCC3)cc2C1 [Compound 147] | 100 to 500 | – |
| Nc1cn(-c2ccccc2)nc1NC(=O)C1CCNCC1 [Compound 357] | > 5000 | – |
| CN(C1COC1)[C@H]1[C@@H]2CN(C(=O)Nc3nc(-c4ccc(F)cc4)ccc3N)C[C@@H]21 [Compound 262] | > 5000 | – |
| CN(C)Cc1ccc2c(c1)CN(C(=O)Nc1nc(-c3ccco3)ccc1N)C2 [Compound 365] | 100 to 500 | – |
